# pEC50: −log10 of the molar value.
# Key:
# [1] = tested on: Mycobacterium tuberculosis; experiment: Antitubercular activity against Mycobacterium tuberculosis H37Rv assessed as bacterial growth inhibition at 10 uM incubated for 5 days by resazurin microtiter assay relative to control; type: functional; settings: 120 h, time 5 day
# [2] = tested on: Mycobacterium tuberculosis; experiment: Antitubercular activity against Mycobacterium tuberculosis H37Rv assessed as bacterial growth inhibition at 1 uM incubated for 5 days by resazurin microtiter assay relative to control; type: functional; settings: 120 h, time 5 day
# [3] = tested on: Mycobacterium tuberculosis; experiment: Antitubercular activity against Mycobacterium tuberculosis H37Rv assessed as bacterial growth inhibition incubated for 5 days by resazurin microtiter assay; type: functional; settings: 120 h, time 5 day
# [4] = target: Voltage-gated inwardly rectifying potassium channel KCNH2 (Homo sapiens, UniProt Q12809); experiment: Inhibition of fluorescently labelled tracer binding to human ERG by competitive binding assay
# [5] = tested on: Mycobacterium tuberculosis; experiment: Antitubercular activity against Mycobacterium tuberculosis H37Rv by broth microdilution method; type: functional
# Chain of Voltage-gated inwardly rectifying potassium channel KCNH2 (Q12809 whole entry): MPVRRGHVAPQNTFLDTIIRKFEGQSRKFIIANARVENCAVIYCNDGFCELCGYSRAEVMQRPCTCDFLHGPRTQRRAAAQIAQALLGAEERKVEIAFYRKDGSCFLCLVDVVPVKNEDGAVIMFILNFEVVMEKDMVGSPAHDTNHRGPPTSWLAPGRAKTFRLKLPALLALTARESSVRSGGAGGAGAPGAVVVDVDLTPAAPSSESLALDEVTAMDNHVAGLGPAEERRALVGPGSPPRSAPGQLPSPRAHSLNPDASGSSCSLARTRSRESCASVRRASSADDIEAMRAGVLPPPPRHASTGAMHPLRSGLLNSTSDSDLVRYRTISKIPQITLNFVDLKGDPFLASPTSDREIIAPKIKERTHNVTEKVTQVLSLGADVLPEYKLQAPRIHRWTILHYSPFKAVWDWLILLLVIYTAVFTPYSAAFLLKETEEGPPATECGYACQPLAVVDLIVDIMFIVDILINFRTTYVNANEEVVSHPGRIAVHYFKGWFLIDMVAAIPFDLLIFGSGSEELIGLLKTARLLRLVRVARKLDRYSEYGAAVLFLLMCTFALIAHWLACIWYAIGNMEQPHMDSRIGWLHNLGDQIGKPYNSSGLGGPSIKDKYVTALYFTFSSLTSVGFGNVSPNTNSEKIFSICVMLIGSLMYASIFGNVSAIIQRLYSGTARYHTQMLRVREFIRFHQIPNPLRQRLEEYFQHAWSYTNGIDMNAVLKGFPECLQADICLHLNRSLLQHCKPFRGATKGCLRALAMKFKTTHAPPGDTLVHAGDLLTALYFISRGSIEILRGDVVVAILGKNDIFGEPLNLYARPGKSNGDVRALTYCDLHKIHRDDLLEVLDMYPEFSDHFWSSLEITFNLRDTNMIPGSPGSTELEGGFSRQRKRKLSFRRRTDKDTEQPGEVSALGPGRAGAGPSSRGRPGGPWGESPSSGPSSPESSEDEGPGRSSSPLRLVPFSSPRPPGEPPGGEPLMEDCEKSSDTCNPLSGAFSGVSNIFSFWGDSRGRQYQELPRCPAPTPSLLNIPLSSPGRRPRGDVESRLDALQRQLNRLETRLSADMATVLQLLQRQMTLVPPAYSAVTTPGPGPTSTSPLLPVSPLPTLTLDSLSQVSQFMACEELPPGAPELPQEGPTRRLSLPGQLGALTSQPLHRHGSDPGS
structure (smiles),measurement,setting,value
COc1ncc(-c2ccccc2OC(F)(F)F)cc1C(c1ccccc1)C(O)(CCN(C)C)c1cccc2ccccc12 (configuration not stated),inhibition at 10 µM,[1],100%
same,inhibition at 1 µM,[2],0%
COc1ncc(-c2ccc(Cl)cc2)cc1C(c1ccccc1)C(O)(CCN(C)C)c1cccc2ccccc12 (configuration not stated),inhibition at 10 µM,[1],100%
same,MIC90,[3],6.94 µM
same,inhibition at 1 µM,[2],5%
COc1ncc(-c2ccccc2F)cc1C(c1ccccc1)C(O)(CCN(C)C)c1cccc2ccccc12 (configuration not stated),inhibition at 10 µM,[1],100%
same,MIC90,[3],2.6 µM
same,inhibition at 1 µM,[2],0%
COc1ncc(-c2ccc(C)c(Cl)c2)cc1C(c1ccccc1)C(O)(CCN(C)C)c1cccc2ccccc12 (configuration not stated),inhibition at 10 µM,[1],100%
same,inhibition at 1 µM,[2],5%
COc1ncc(-c2ccc(F)cc2F)cc1C(c1ccccc1)C(O)(CCN(C)C)c1cccc2ccccc12 (configuration not stated),inhibition at 10 µM,[1],100%
same,inhibition at 1 µM,[2],0%
COc1ncc(-c2ccc(OC(F)(F)F)cc2)cc1C(c1ccccc1)C(O)(CCN(C)C)c1cccc2ccccc12 (configuration not stated),inhibition at 10 µM,[1],100%
same,MIC90,[3],6.05 µM
same,inhibition at 1 µM,[2],10%
COc1ncc(-c2ccccc2)cc1C(c1ccccc1)C(O)(CCN(C)C)c1cccc2ccccc12 (configuration not stated),inhibition at 10 µM,[1],100%
same,MIC90,[3],5.51 µM
same,inhibition at 1 µM,[2],10%
COc1nc(OC)c(C(c2ccccc2)C(O)(CCN(C)C)c2cccc3ccccc23)cc1-c1ccc(Cl)cc1 (configuration not stated),MIC90,[3],3.44 µM
COc1ncc(-c2ccc(C(C)(C)C)cc2)cc1C(c1ccccc1)C(O)(CCN(C)C)c1cccc2ccccc12 (configuration not stated),inhibition at 10 µM,[1],100%
same,MIC90,[3],3.09 µM
same,inhibition at 1 µM,[2],90%
COc1nc(OC)c(C(c2ccccc2)C(O)(CCN(C)C)c2cccc3ccccc23)cc1-c1ccc(OC(F)(F)F)cc1 (configuration not stated),MIC90,[3],2.34 µM
COc1ncc(-c2ccc(F)cc2C#N)cc1C(c1ccccc1)C(O)(CCN(C)C)c1cccc2ccccc12 (configuration not stated),inhibition at 10 µM,[1],100%
same,inhibition at 1 µM,[2],0%
COc1ncc(-c2cccc3ccccc23)cc1C(c1ccccc1)C(O)(CCN(C)C)c1cccc2ccccc12 (configuration not stated),inhibition at 10 µM,[1],100%
same,inhibition at 1 µM,[2],5%
COc1ccc(-c2cc(C(c3ccccc3)C(O)(CCN(C)C)c3cccc4ccccc34)c(OC)nc2OC)cc1 (configuration not stated),MIC90,[3],3.94 µM
COc1ncc(-c2ccc(F)c(C)c2)cc1C(c1ccccc1)C(O)(CCN(C)C)c1cccc2ccccc12 (configuration not stated),inhibition at 10 µM,[1],100%
same,inhibition at 1 µM,[2],5%
COc1ncc(-c2ccc(Cl)cc2Cl)cc1C(c1ccccc1)C(O)(CCN(C)C)c1cccc2ccccc12 (configuration not stated),inhibition at 10 µM,[1],100%
same,inhibition at 1 µM,[2],0%
COc1nc(OC)c(C(c2ccccc2)C(O)(CCN(C)C)c2cccc3ccccc23)cc1-c1ccccc1 (configuration not stated),MIC90,[3],3.88 µM
COc1nc(OC)c([C@H](c2ccccc2)[C@](O)(CCN(C)C)c2cccc3ccccc23)cc1-c1ccc(C#N)cc1,MIC90,[3],8 µM
COc1ncc(-c2ccc(F)cc2)cc1C(c1ccccc1)C(O)(CCN(C)C)c1cccc2ccccc12 (configuration not stated),inhibition at 10 µM,[1],100%
same,MIC90,[3],0.8 µM
same,inhibition at 1 µM,[2],100%
COc1ncc(-c2cccc(Cl)c2)cc1C(c1ccccc1)C(O)(CCN(C)C)c1cccc2ccccc12 (configuration not stated),inhibition at 10 µM,[1],100%
same,MIC90,[3],7.94 µM
same,inhibition at 1 µM,[2],5%
COc1nc(OC)c(C(c2ccccc2)C(O)(CCN(C)C)c2cccc3ccccc23)cc1-c1ccc(C#N)cc1 (configuration not stated),MIC90,[3],1.24 µM
COc1ncc(-c2ccc(C(F)(F)F)cc2Cl)cc1C(c1ccccc1)C(O)(CCN(C)C)c1cccc2ccccc12 (configuration not stated),inhibition at 10 µM,[1],100%
same,inhibition at 1 µM,[2],5%
COc1ncc(-c2ccc(Cl)c(Cl)c2)cc1C(c1ccccc1)C(O)(CCN(C)C)c1cccc2ccccc12 (configuration not stated),inhibition at 10 µM,[1],100%
same,inhibition at 1 µM,[2],0%
COc1ncc(-c2cccc(F)c2)cc1C(c1ccccc1)C(O)(CCN(C)C)c1cccc2ccccc12 (configuration not stated),inhibition at 10 µM,[1],100%
same,MIC90,[3],2.51 µM
same,inhibition at 1 µM,[2],5%
COc1ncc(-c2ccccc2C#N)cc1C(c1ccccc1)C(O)(CCN(C)C)c1cccc2ccccc12 (configuration not stated),inhibition at 10 µM,[1],90%
same,inhibition at 1 µM,[2],0%
COc1nc(OC)c(C(c2ccccc2)C(O)(CCN(C)C)c2cccc3ccccc23)cc1-c1ccc(F)cc1 (configuration not stated),MIC90,[3],2.41 µM
COc1nc(OC)c([C@@H](c2ccccc2)[C@@](O)(CCN(C)C)c2cccc3ccccc23)cc1-c1ccc(C#N)cc1,MIC90,[3],1 µM
same,pEC50,[4],5.82
COc1ncc(-c2ccc(F)c(Cl)c2)cc1C(c1ccccc1)C(O)(CCN(C)C)c1cccc2ccccc12 (configuration not stated),inhibition at 10 µM,[1],100%
same,inhibition at 1 µM,[2],0%
COc1ncc(-c2ccc(Cl)c(C(F)(F)F)c2)cc1C(c1ccccc1)C(O)(CCN(C)C)c1cccc2ccccc12 (configuration not stated),inhibition at 10 µM,[1],100%
same,inhibition at 1 µM,[2],0%
COc1ncc(-c2ccccc2Cl)cc1C(c1ccccc1)C(O)(CCN(C)C)c1cccc2ccccc12 (configuration not stated),inhibition at 10 µM,[1],100%
same,MIC90,[3],4.52 µM
same,inhibition at 1 µM,[2],0%
COc1ncc(-c2ccc(C(F)(F)F)cc2)cc1C(c1ccccc1)C(O)(CCN(C)C)c1cccc2ccccc12 (configuration not stated),inhibition at 10 µM,[1],100%
same,MIC90,[3],4.26 µM
same,inhibition at 1 µM,[2],5%
COc1ncc(Br)cc1C(c1ccccc1)C(O)(CCN(C)C)c1cccc2ccccc12 (mixture of isomers),MIC90,[3],> 10 µM
COc1nc2ccc(Br)cc2cc1[C@@H](c1ccccc1)[C@@](O)(CCN(C)C)c1cccc2ccccc12 [BEDAQUILINE],MIC90,[5],0.027 µM
same,MIC90,[3],0.35 µM
CO[C@H]1/C=C/O[C@@]2(C)Oc3c(C)c(O)c4c(O)c(c(/C=N/N5CCN(C)CC5)c(O)c4c3C2=O)NC(=O)/C(C)=C\C=C\[C@H](C)[C@H](O)[C@@H](C)[C@@H](O)[C@@H](C)[C@H](OC(C)=O)[C@@H]1C [RIFAMPIN],MIC90,[3],0.006 µM
